Data on 14 compounds can be found in ChEMBL document CHEMBL5325462, “Regioselective synthesis and in vitro cytotoxicity evaluation of 3-thiooxindole derivatives: Tubulin polymerization inhibition and apoptosis inducing studies” (Bioorg Med Chem, 2023).

Data set [1] concerns SK-MEL-28. The data set is described as follows: Cytotoxicity against human SK-MEL-28 cells assessed as inhibition of cell growth measured after 72 hrs by MTT assay. It is filed as functional, cell-based. As to conditions: SK-MEL-28, 72 h. In general terms: Tetrazolium assays rely on reduction of a dye to a coloured formazan, in cell work by metabolically active cells.
Data set [2] is described as follows: Cytotoxicity against rat NRK cells assessed as inhibition of cell growth measured after 72 hrs by MTT assay. Type of data set: toxicity, cell-based.
Data set [3] relates to A549. As to the kind of experiment: Cytotoxicity against human A549 cells assessed as inhibition of cell growth measured after 72 hrs by MTT assay. It is filed as functional, cell-based. As to conditions: A549, 72 h.
Data set [4] relates to MCF7. The data set is described as follows: Cytotoxicity against human MCF7 cells assessed as inhibition of cell growth measured after 72 hrs by MTT assay. Type of data set: functional, cell-based. The following applies: MCF7, 72 h.
The subject of data set [5] is HCT-116. The data set is described as follows: Cytotoxicity against human HCT-116 cells assessed as inhibition of cell growth measured after 72 hrs by MTT assay. Type of data set: functional, cell-based. The following applies: HCT-116, 72 h.
For data set [6], the system named is BT-474. The data set is described as follows: Cytotoxicity against human BT-474 cells assessed as inhibition of cell growth measured after 72 hrs by MTT assay. Type of data set: functional, cell-based. The following applies: BT-474, 72 h.
Data set [7] concerns HCT-116. As to the kind of experiment: Induction of nuclear morphological changes in human HCT-116 cells assessed as change in nuclear condensation measured after 48 hrs by DAPI-staining based fluorescence microscopic analysis. Type of data set: functional, cell-based.
Data set [8] relates to HCT-116. As to the kind of experiment: Induction of ROS production in human HCT-116 cells at 3.36 uM incubated for 72 hrs by DCFDA staining based fluorescence microscopic analysis. Type of data set: functional, cell-based.
In data set [9] the test system is HCT-116. The data set is described as follows: Induction of morphological changes in human HCT-116 cells assessed as cell nucleus shrinkage at 3.36 to 13.46 uM measured after 48 hrs by phase contrast microscope. Type of data set: functional, cell-based. As to conditions: dose 3.36-13.46 µM.
Data set [10] deals with HCT-116. The data set is described as follows: Induction of morphological changes in human HCT-116 cells assessed as cell detachment at 3.36 to 13.46 uM measured after 48 hrs by phase contrast microscope. Type of data set: functional, cell-based. As to conditions: dose 3.36-13.46 µM.
The test system of data set [11] is HCT-116. As to the kind of experiment: Induction of apoptosis in human HCT-116 cells assessed as reduction in cell viability at 3.36 to 13.46 uM measured after 48 hrs by phase contrast microscope. Type of data set: functional, cell-based. As to conditions: dose 3.36-13.46 µM.
The test system of data set [12] is HCT-116. The data set is described as follows: Induction of nuclear morphological changes in human HCT-116 cells assessed as change in nuclear shape measured after 48 hrs by DAPI-staining based fluorescence microscopic analysis. It is filed as functional, cell-based.
The test system of data set [13] is HCT-116. The data set is described as follows: Induction of nuclear morphological changes in human HCT-116 cells assessed as horseshoe shaped nuclei formation measured after 48 hrs by DAPI-staining based fluorescence microscopic analysis. It is filed as functional, cell-based.
The test system of data set [14] is HCT-116. The data set is described as follows: Induction of morphological changes in human HCT-116 cells assessed as formation of necrotic bodies incubated for 24 hrs by acridine orange/ethidium bromide staining based fluorescence microscopic analysis. Type of data set: functional, cell-based.
For data set [15], the system named is HCT-116. The data set is described as follows: Inhibition of cell invasion in human HCT-116 cells at 3.36 to 13.46 uM measured after 48 hrs by phase contrast microscopic analysis. Type of data set: functional, cell-based. The following applies: dose 3.36-13.46 µM.
In data set [16] the test system is HCT-116. The data set is described as follows: Induction of morphological changes in human HCT-116 cells assessed as formation of apoptotic bodies incubated for 24 hrs by acridine orange/ethidium bromide staining based fluorescence microscopic analysis. Type of data set: functional, cell-based.

SMILES strings stand for the structures. The source made the active and inactive calls. The calls are words filed in the database; no cut-off is given here.

`CC(C)(C)S(=O)(=O)NCC1(Sc2nnc(-c3ccc(Cl)c(Cl)c3)o2)C(=O)N(Cc2ccc(Br)cc2)c2ccccc21` (stereo unspecified): the 50% inhibitory concentration (IC50) (as a rule, the concentration needed to halve the response being measured) in data set [1] is 13.7 µM; in [3], 41.7 µM; in data set [4], more than 50 µM; in [5], more than 50 µM; in [6], 15.3 µM. In addition, the IC50 at 72 h in data set [2] was 21.9 µM.

For the compound `COc1cccc(-c2nnc(SC3(CNS(=O)(=O)C(C)(C)C)C(=O)N(Cc4ccccc4)c4ccccc43)o2)c1` (stereo unspecified), the IC50 in data set [1] was 15.3 µM; in data set [3] it was 30.7 µM; in data set [4], more than 50 µM; in data set [5], more than 50 µM; in data set [6], 14 µM. The IC50 at 72 h in [2] was found to be 22.9 µM.

With `CC(C)(C)S(=O)(=O)NCC1(Sc2nc3ccccc3[nH]2)C(=O)N(Cc2ccccc2)c2ccccc21` (stereo unspecified), the IC50 was 22.3 µM in data set [1]; 31.2 µM in [3]; more than 50 µM in [4]; 43.1 µM in data set [5]; 15.2 µM in data set [6]. In data set [2], the half-maximal inhibitory concentration (IC50) at 72 h was determined as 17.9 µM.

`O=c1[nH]cc(F)c(=O)[nH]1` [FLUOROURACIL]: the IC50 in data set [3] is 25.4 µM; in [4] it was 24.8 µM; in [5] it was 16.6 µM.

Take `CC(C)(C)S(=O)(=O)NCC1(Sc2nnc(-c3cccc(Br)c3)o2)C(=O)N(Cc2ccccc2)c2ccccc21` (stereo unspecified): the IC50 in data set [1] was determined as 12.6 µM; in data set [3], 12.1 µM; in data set [4] it was 12.8 µM; in [5], 12.1 µM; in data set [6], 12.7 µM. The IC50 at 72 h in data set [2] stood at 14.1 µM.

In the case of `Cc1ccc(CN2C(=O)C(CNS(=O)(=O)C(C)(C)C)(Sc3nnc(-c4ccccc4)o3)c3ccccc32)cc1` (stereo unspecified), the IC50 in data set [1] worked out at 17.1 µM; in data set [3] it was 14.2 µM; in [4], 13.9 µM; in data set [5], 6.73 µM; in [6], 12.3 µM. For the same compound, the Activity result in [7], in data set [12], in [13] and in [16] was “Dose-Dependent Effect” throughout. For the same compound, the IC50 at 72 h in [2] is 18 µM. For the same compound, the outcome in [8], in data set [9], in data set [10], in data set [11] and in data set [14] was Active. Moreover, in data set [15], the inhibition result was “Active”.

For `CC(C)(C)S(=O)(=O)NCC1(Sc2nnc(-c3ccccc3)o2)C(=O)N(Cc2ccccc2)c2ccc(F)cc21` (stereo unspecified), the IC50 in data set [1] is 30.4 µM; in data set [3] it was 37.8 µM; in data set [4], 40.4 µM; in data set [5] it was more than 50 µM; in [6], 16.7 µM. The IC50 at 72 h in data set [2] was found to be 33.3 µM.

For the compound `Cc1ccc2c(c1)C(CNS(=O)(=O)C(C)(C)C)(Sc1nc3ccccc3s1)C(=O)N2C` (stereo unspecified), the IC50 in data set [1] is 23.6 µM; in [3] it was 18.2 µM; in data set [4], 17.2 µM; in [5], 8.99 µM; in data set [6], 13.2 µM. For the same compound, the IC50 at 72 h in data set [2] amounted to 26.8 µM.

`Cc1ccc2c(c1)C(CNS(=O)(=O)C(C)(C)C)(Sc1nnc(-c3ccccc3)o1)C(=O)N2Cc1ccccc1` (stereo unspecified): the IC50 in data set [1] was 15.6 µM; in [3] it was more than 50 µM; in data set [4] it was 34.3 µM; in data set [5], more than 50 µM; in data set [6], 23.6 µM. Moreover, the IC50 at 72 h in data set [2] came to 12.7 µM.

Turning to `CC(C)(C)S(=O)(=O)NCC1(Sc2nnc(-c3ccccc3)o2)C(=O)N(Cc2ccccc2)c2ccccc21` (stereo unspecified), the concentration for half-maximal inhibition (IC50) was 17.7 µM in data set [1]; 14.2 µM in [3]; 15.5 µM in data set [4]; 15.4 µM in data set [5]; 14.5 µM in [6]. Further, the IC50 at 72 h in data set [2] came out at 31.9 µM.

As to `COc1cccc(-c2nnc(SC3(CNS(=O)(=O)C(C)(C)C)C(=O)N(Cc4ccc(Br)cc4)c4ccccc43)n2-c2ccccc2)c1` (stereo unspecified), the IC50 in data set [1] was 26.1 µM; in data set [3] it was more than 50 µM; in data set [4], 35.8 µM; in data set [5] it was more than 50 µM; in data set [6], 13.8 µM. The IC50 at 72 h in [2] was 21.8 µM.

Consider `Cc1ccc(CN2C(=O)C(CNS(=O)(=O)C(C)(C)C)(Sc3nc4ccccc4[nH]3)c3ccccc32)cc1` (stereo unspecified), for which the half-maximal inhibitory concentration (IC50) in data set [1] came to 33.6 µM; in [3], 13.2 µM; in data set [4] it was 13.9 µM; in [5] it was 8.96 µM; in data set [6], 13.3 µM. Also, the IC50 at 72 h in data set [2] stood at 21.8 µM.

Turning to `CN1C(=O)C(CNS(=O)(=O)C(C)(C)C)(Sc2nc3ccccc3[nH]2)c2cc(Br)ccc21` (stereo unspecified), the IC50 in data set [1] was 16.8 µM; in [3], 18.2 µM; in data set [4], 12.8 µM; in [5], 12.3 µM; in data set [6], 13.1 µM. Further, in data set [2], the IC50 at 72 h was found to be 25.7 µM.

For the compound `CC(C)(C)S(=O)(=O)NCC1(Sc2nnc(-c3ccc(Cl)cc3)n2-c2ccccc2)C(=O)N(Cc2ccccc2)c2ccccc21` (stereo unspecified), the IC50 was more than 50 µM in data set [1]; more than 50 µM in data set [3]; 45 µM in data set [4]; more than 50 µM in data set [5]; 16 µM in data set [6]. For the same compound, the IC50 at 72 h in data set [2] amounted to 24.8 µM.
